{"source": "patent US20120190723A1", "about": "“VIRAL MODULATORS AND PROCESSES THEREOF” (priority 2010, published 2012)", "key": {"U87MG astrocytes": {"tested_on": "U87MG astrocytes", "settings": "for cellular viability of BIO analogs: 1 μM"}, "VEEV TC-83 [1]": {"tested_on": "VEEV TC-83", "assay": "microbe, parasite or virus in culture", "format": "cell-based, Venezuelan Equine Encephalitis Virus", "settings": "for effect on VEEV induced CPE: 1 μM, 48 hours post infection"}, "[2]": {"tested_on": "HIV-1 LTR Tat dependent transcription", "assay": "cells", "settings": "Human immunodeficiency virus 1, TZM-bl, read-out: % Inhibition at 1 μM"}, "[3]": {"tested_on": "Rat mixed hippocampal cultures exposed to Tat1-72", "assay": "Tat neurotoxicity in rat mixed hippocampal cultures (MTT)", "format": "cell-based", "settings": "for protection against Tat mediated neurodegeneration: 1.0 and 3.0 uM, p<0.05, 500 nM Tat1-72, 18 hours; for neurotoxicity: 5.0 and 10.0 uM", "description": "After approximately 18 hours, cell survival may be measured by MTT assay. Statistical significance may be determined by ANOVA, followed by Newman-Keuls post hoc pair-wise comparisons.\nIn some aspects of embodiments, rat mixed hippocampal cultures may be preincubated with BIO prior to exposure to Tat. Cell death may be analyzed approximately 18 hours after Tat exposure by MTT assay."}, "survivin, BID": {"tested_on": "survivin, BID", "format": "cell-based"}, "VEEV TC-83 [4]": {"tested_on": "VEEV TC-83", "format": "in vivo, C3H/HeN mice", "settings": "for survival rate: SQ days −1, 1, 3, 5, BIO 50 mg/kg, BIOder 20 mg/kg, 14 days, vehicle 10%; for survival differential: vs vehicle control"}, "VEEV TC-83 [5]": {"tested_on": "VEEV TC-83", "format": "cell-based, Venezuelan Equine Encephalitis Virus", "settings": "1 μM"}, "HIV-1 dual tropic 89.6 [6]": {"tested_on": "HIV-1 dual tropic 89.6", "assay": "HIV-1 89.6 replication in primary monocyte/macrophages (RT assay)", "format": "cell-based", "settings": "Human immunodeficiency virus 1, Primary macrophage, 168 h; 89.6 infection, RT day 7"}, "HIV-1 dual tropic 89.6 [7]": {"tested_on": "HIV-1 dual tropic 89.6", "assay": "HIV-1 89.6 replication in U87MG cells (RT assay)", "format": "cell-based", "settings": "Human immunodeficiency virus 1, U-87 MG, 168 h; 89.6 infection, RT day 7"}, "[8]": {"tested_on": "monocyte/macrophage from two healthy donors and U87MG", "assay": "MTT toxicity in monocyte/macrophages and U87MG", "format": "cell-based", "settings": "primary cells or cell line"}, "[9]": {"tested_on": "HIV-rtTA KWK (Tat+) and KYK (Tat−) clones", "assay": "dox-dependent HIV-rtTA variants (KWK, KYK) in macrophages, RT assay", "format": "cell-based, HIV-1", "settings": "BIOder 50 nM, dox 1000 ng/ml, RT day 10"}, "VEEV TC-83 [10]": {"tested_on": "VEEV TC-83", "assay": "microbe, parasite or virus in culture", "format": "cell-based", "settings": "Venezuelan equine encephalitis virus, U-87 MG, read-out: IC50, VEEV replication"}, "[11]": {"settings": "in vivo"}, "in vitro": {"assay": "in vitro", "settings": "human"}, "GSK-3β [12]": {"target": "T1, GSK-3β (Homo sapiens, UniProt P49841)", "assay": "GSK-3β immunoprecipitation in vitro kinase assay (U937 cells)"}, "GSK-3β [13]": {"target": "T1, GSK-3β", "format": "biochemical", "design": "Cells may be lysed and immunoprecipitated with control IgG and/or GSK-3β antibody; endogenous in cells"}, "[14]": {"tested_on": "HIV-1 LTR Tat dependent transcription", "settings": "TZM-bl cells transfected with Tat, compared to the DMSO control"}}, "note": "“Also recorded” adds a separate entry of the source. Counter-ions that a name gives are not always drawn. Like-named read-outs stand apart in the source and are kept apart here. Starred links: 1 amine or outer side, 2 acyl side, 3 side chain; linkers in the order of their positions; H or OH if unused. Positions of bridges follow the written chain, without caps; N, C: chain ends. Non-standard residues stand in square brackets, D forms with d. Residues, ends and D or L forms follow the SMILES beside them. Chains are numbered I, II in the order given. Actinocin(9to1) = Cc1c2oc3c(C)ccc(C(=O)[*:1])c3nc-2c(C(=O)[*:2])c(N)c1=O; NMeV = CN[C@H](C(=O)O)C(C)C; Sar = CNCC(=O)O", "data": [{"smiles": "O=C1NC(=O)/C(=C2/C(=O)Nc3ccc(Br)cc32)N1", "note": "[Compound 33, 5-(5-bromo-2-oxo-1,2-dihydro-3H-indol-3-ylidene)-2,4-imidazolidinedione]", "values": [{"measurement": "cellular viability of BIO analogs", "setting": "U87MG astrocytes", "value": "decrease in cellular viability"}]}, {"smiles": "O=C1Nc2c(Br)cc(Br)cc2/C1=N/NC(=O)c1cc(-c2ccccc2)n[nH]1", "note": "[Compound 24, N′-(5,7-dibromo-2-oxo-1,2-dihydro-3H-indol-3-ylidene)-3-phenyl-1Hpyrazole-5-carbohydrazide]", "values": [{"measurement": "effect on VEEV induced CPE", "setting": "VEEV TC-83 [1]", "value": "increase observed CPE"}]}, {"smiles": "COc1ccc(-c2cc(C(=O)N/N=C3/C(=O)Nc4ccc(Br)cc43)[nH]n2)cc1", "note": "[Compound 28, N′-(5-bromo-2-oxo-1,2-dihydro-3H-indol-3-ylidene)-3-(4-methoxyphenyl)-1H-pyrazole-5-carbohydrazide]", "values": [{"measurement": "effect on VEEV induced CPE", "setting": "VEEV TC-83 [1]", "value": "inhibit CPE"}]}, {"smiles": "Cc1c2oc3c(C)ccc(C(=O)N[C@@H]4C(=O)N[C@H](C(C)C)C(=O)N5CCC[C@H]5C(=O)N(C)CC(=O)N(C)[C@@H](C(C)C)C(=O)O[C@@H]4C)c3nc-2c(C(=O)N[C@@H]2C(=O)N[C@H](C(C)C)C(=O)N3CCC[C@H]3C(=O)N(C)CC(=O)N(C)[C@@H](C(C)C)C(=O)O[C@@H]2C)c(N)c1=O", "note": "[Dactiniomycin, Dactinomycin] (I: T[dV]P[Sar][NMeV] / II: T[dV]P[Sar][NMeV]; ester I:1-I:C, II:1-II:C; linker I:N-II:N via Actinocin(9to1))", "values": [{"measurement": "inhibition at 1 µM", "setting": "[2]", "value": 98, "unit": "%"}]}, {"smiles": "O=C1Nc2cc(Br)ccc2/C1=C1/Nc2ccccc2/C1=N\\O", "note": "[BIO, 6-bromoindirubin-3′-oxime, reference compound]", "values": [{"measurement": "protection against Tat mediated neurodegeneration", "setting": "[3]", "value": "significant neuroprotective effects"}, {"measurement": "neurotoxicity", "setting": "[3]", "value": "neurotoxicity observed"}, {"measurement": "LD50 (neurotoxicity)", "setting": "[3]; rat mixed hippocampal cultures", "value": "approximately 4 uM"}, {"measurement": "survivin expression", "setting": "survivin, BID", "value": "relatively increase survivin expression"}, {"measurement": "survival rate", "setting": "VEEV TC-83 [4]", "value": "~30", "unit": "%"}, {"measurement": "survival differential", "setting": "VEEV TC-83 [4]", "value": "approximately 20%"}]}, {"smiles": "Cc1c(Cl)ccc2c1NC(=O)/C2=C1/C(=O)Nc2ccccc21", "note": "[Compound 38, 6-chloro-7-methyl-3,3′-biindole-2,2′(1H,1′H)-dione]", "values": [{"measurement": "effect on VEEV (FIG. 11)", "setting": "VEEV TC-83 [5]", "value": "VEEV activators"}]}, {"smiles": "Cc1[nH]c2ccc(Br)cc2c1CC(=O)N/N=C1/C(=O)Nc2ccccc21", "note": "[Compound 21, 2-(5-bromo-2-methyl-1H-indol-3-yl)-N′-(2-oxo-1,2-dihydro-3H-indol-3-ylidene)acetohydrazide]", "values": [{"measurement": "effect on VEEV (FIG. 11)", "setting": "VEEV TC-83 [5]", "value": "VEEV activators"}]}, {"smiles": "O=C1Nc2ccc(Cl)cc2/C1=C1\\C(=O)Nc2ccc(Br)cc21", "note": "[Compound 34, 5-bromo-5′-chloro-3,3′-biindole-2,2′(1H,1′H)-dione]", "values": [{"measurement": "cellular viability of BIO analogs", "setting": "U87MG astrocytes", "value": "decrease in cellular viability"}]}, {"smiles": "Cc1cc2c(cc1Br)NC(=O)/C2=N/N=C1/C(=O)Nc2cc(Br)c(C)cc21", "note": "[Compound 6, 6-bromo-5-methyl-1H-indole-2,3-dione 3-[(6-bromo-5-methyl-2-oxo-1,2-dihydro-3H-indol-3-ylidene)hydrazone]]", "values": [{"measurement": "IC50", "setting": "HIV-1 dual tropic 89.6 [6]", "value": "~4", "unit": "nM"}, {"measurement": "IC50", "setting": "HIV-1 dual tropic 89.6 [7]", "value": "~0.5", "unit": "nM"}, {"measurement": "Cytotoxic concentration (MTT)", "setting": "[8]", "value": "> 10", "unit": "µM"}, {"measurement": "viral replication of KWK (Tat+) and KYK (Tat−) clones", "setting": "[9]", "value": "inhibited in the KWK (Tat+) and not KYK (Tat−) clone"}, {"measurement": "protection against Tat mediated neurodegeneration", "setting": "[3]", "value": "protective effect"}, {"measurement": "neurotoxicity", "setting": "[3]", "value": "no neurotoxicity observed"}, {"measurement": "IC50", "setting": "VEEV TC-83 [10]", "value": "~500", "unit": "nM"}, {"measurement": "effect on VEEV induced CPE", "setting": "VEEV TC-83 [1]", "value": "inhibit CPE; also recorded: particularly strong inhibition"}, {"measurement": "cellular viability of VEEV infected cells", "setting": "VEEV TC-83 [1]; 72 hours post-infection, all concentrations employed", "value": "relative increase in cellular viability"}, {"measurement": "IC50", "setting": "VEEV TC-83 [1]; Venezuelan equine encephalitis virus, U-87 MG, read-out: IC50 for inhibition of VEEV induced CPE", "value": "< 100", "unit": "nM"}, {"measurement": "BID expression", "setting": "survivin, BID", "value": "relatively strong decrease"}, {"measurement": "survivin expression", "setting": "survivin, BID", "value": "relative increase in the expression of survivin"}, {"measurement": "survival rate", "setting": "VEEV TC-83 [4]", "value": "approximately 50%"}, {"measurement": "survival differential", "setting": "VEEV TC-83 [4]", "value": "approximately 40%"}, {"measurement": "cellular viability", "setting": "U87MG astrocytes", "value": "no substantial effect on cellular viability"}, {"measurement": "mouse weight", "setting": "[11]", "value": "substantially no treatment group showed weight loss"}, {"measurement": "signs of toxicity (lethargy, ruffling of coats, weight loss)", "setting": "[11]; mouse", "value": "Substantially no signs of toxicity"}, {"measurement": "CC50", "setting": "in vitro", "value": "> 100", "unit": "µM"}, {"measurement": "IC50", "setting": "GSK-3β [12]", "value": "~0.03", "unit": "nM"}, {"measurement": "inhibition of GSK-3β kinase activity", "setting": "GSK-3β [12]; at approximately 1 nM, glycogen synthase peptide 2 substrate", "value": "approximately 90%"}, {"measurement": "GSK3-β kinase activity", "setting": "GSK-3β [13]", "value": "much more relatively dramatic influence"}]}, {"smiles": "O=C1Nc2ccc(Br)cc2/C1=N/NC(=O)c1ccc(Cl)cc1Cl", "note": "[Compound 16, N′-(5-bromo-2-oxo-1,2-dihydro-3H-indol-3-ylidene)-2,4-dichlorobenzohydrazide]", "values": [{"measurement": "cellular viability of BIO analogs", "setting": "U87MG astrocytes", "value": "decrease in cellular viability"}]}, {"smiles": "O=C1Nc2ccc(Br)cc2/C1=N\\NC(=O)c1ccccc1NC(=O)c1ccccc1", "note": "[Compound 31, N-(2-{[2-(5-bromo-2-oxo-1,2-dihydro-3H-indol-3-ylidene)hydrazino]carbonyl}phenyl)benzamide]", "values": [{"measurement": "effect on VEEV induced CPE", "setting": "VEEV TC-83 [1]", "value": "inhibit CPE"}]}, {"smiles": "Cc1ccc2c(c1Br)C(=NNc1ccccc1)C(=O)N2", "note": "[Compound 17, 4-bromo-5-methyl-1H-indole-2,3-dione 3-(phenylhydrazone)]", "values": [{"measurement": "effect on VEEV induced CPE", "setting": "VEEV TC-83 [1]", "value": "inhibit CPE"}]}, {"smiles": "Cc1cc(C(=O)N/N=C2\\C(=O)Nc3ccc(Br)cc32)[nH]n1", "note": "[Compound 32, N′-(5-bromo-2-oxo-1,2-dihydro-3H-indol-3-ylidene)-3-methyl-1Hpyrazole-5-carbohydrazide]", "values": [{"measurement": "cellular viability of BIO analogs", "setting": "U87MG astrocytes", "value": "decrease in cellular viability"}]}, {"smiles": "Cc1ccc2c(c1Br)/C(=N/O)C(=O)N2", "note": "[Compound 4, 4-bromo-5-methyl-1H-indole-2,3-dione 3-oxime]", "values": [{"measurement": "effect on VEEV (FIG. 11)", "setting": "VEEV TC-83 [5]", "value": "VEEV activators"}]}, {"smiles": "Cc1ccc2c(c1Br)/C(=N/NC(=O)Nc1ccccc1)C(=O)N2", "note": "[Compound 5, 4-bromo-5-methyl-1H-indole-2,3-dione 3-(N-phenylsemicarbazone)]", "values": [{"measurement": "effect on VEEV induced CPE", "setting": "VEEV TC-83 [1]", "value": "increase observed CPE"}]}, {"smiles": "O=C1Nc2ccccc2/C1=C1/Nc2ccccc2/C1=N\\O", "note": "[Indirubin-3′-oxime]", "values": [{"measurement": "% Inhibition at 1 μM", "setting": "[14]", "value": 25, "unit": "%"}]}, {"smiles": "C=C[C@H]1CN2CC[C@H]1C[C@H]2[C@H](OC(=O)OCC)c1ccnc2ccc(OC)cc12", "note": "[Quinine ethyl carbonate]", "values": [{"measurement": "inhibition at 1 µM", "setting": "[2]", "value": 34, "unit": "%"}]}, {"smiles": "COc1cccc2c1C(=O)c1c(O)c3c(c(O)c1C2=O)C[C@@](O)(C(=O)CO)C[C@@H]3O[C@H]1C[C@H](N)[C@@H](O)[C@H](C)O1", "note": "[Epirubicin hydrochloride]", "values": [{"measurement": "inhibition at 1 µM", "setting": "[2]", "value": 17, "unit": "%"}]}]}
